{
  "source": "PubChem BioAssay AID456",
  "about": "(Sanford-Burnham Center for Chemical Genomics, 2006)",
  "note": "pIC50: −log10 of the molar value.",
  "data": [
    {"system": "HUVEC TNFa-induced VCAM-1 surface expression, immunofluorescence imaging", "experiment": "suppression of endothelial VCAM-1 upregulation – imaging, high-content imaging, pooled HUVEC, TNFa stimulus (AID 456)", "values": [
      {"smiles": "Oc1ccc(Nc2nc(-c3ccc(O)cc3)cs2)cc1", "pIC50": 4.94},
      {"smiles": "Cc1nc2sccn2c(=O)c1CCN1CCC(=C(c2ccccc2)c2ccc(F)cc2)CC1", "pIC50": 4.94},
      {"smiles": "CN(C)CCCN1c2ccccc2CCc2ccc(Cl)cc21", "pIC50": 4.99},
      {"smiles": "S=C(NCC1CCCO1)n1nnc2ccccc21", "note": "(configuration not stated)", "pIC50": 5.05},
      {"smiles": "CN(C)CCCN1c2ccccc2Sc2ccc(Cl)cc21", "pIC50": 5.07},
      {"smiles": "N#Cc1cc2sc3nnc(-c4ccncc4)n3c2cc1C#N", "pIC50": 4.86},
      {"smiles": "Clc1ccc(OCc2nnc(SCCN3CCCCC3)n2Cc2ccco2)cc1", "pIC50": 4.86},
      {"smiles": "C/C=C(\\CS(=O)(=O)c1ccccc1)S(=O)(=O)c1ccccc1", "pIC50": 5.19},
      {"smiles": "C=CS(=O)(=O)c1ccc(Oc2ccc(S(=O)(=O)C=C)cc2)cc1", "pIC50": 5.92},
      {"smiles": "Cc1oc(-c2cccc(Cl)c2)nc1CN1CCC(C(=O)N2CCN(c3ccccc3F)CC2)CC1", "pIC50": 5.06},
      {"smiles": "CS(=O)(=O)c1ncc(Cl)c(C(=O)Nc2ccc(N3CCOCC3)cc2)n1", "pIC50": 5.19},
      {"smiles": "CC(C)C[C@H]1C(=O)N2CCC[C@H]2[C@]2(O)O[C@](NC(=O)[C@@H]3C=C4c5cccc6[nH]c(Br)c(c56)CC4N(C)C3)(C(C)C)C(=O)N12", "note": "(some centres not stated)", "pIC50": 4.96},
      {"smiles": "O=C1CCn2nc(-c3ccc(Cl)cc3)cc2N1", "pIC50": 4.91},
      {"smiles": "CCOC(=O)c1ccc(N=c2sc(C(=O)OC)cc(=O)n2Cc2ccco2)cc1", "pIC50": 5.31},
      {"smiles": "CCN1C(=O)c2cccc3c(NC(=O)c4ccc(S(=O)(=O)N(C)C)cc4)ccc1c23", "pIC50": 4.92},
      {"smiles": "O=C(Cn1nc(-c2ccc(Cl)cc2)ccc1=O)NCCCN1CCN(Cc2ccccc2)CC1", "pIC50": 4.77},
      {"smiles": "O=S1(=O)C=C(Sc2nc3ccccc3s2)c2ccccc21", "pIC50": 5.63}
    ]}
  ]
}
